The results in this text go back to patent publication US20240299542A1, “NATURAL KILLER CELLS ENGINEERED TO REDUCE OR ELIMINATE CBL-B AND USES THEREOF” (City of Hope, priority 2021, published 2024).

For one data set, the system named is granzyme B. Kind of data set: Granzyme B protein in supernatants by ELISA. The data set is classed as cell-based, human. As to the method: FIGS. 3A-3E depict the results of a study showing that downregulation of Cbl-b enhances the cytotoxicity of primary human NK cells. (FIGS. 3A and 3B) Primary human NK cells transduced with Cbl-b siRNA or Scr siRNA for 24 h were stimulated without (FIG. 3A) or with (FIG. 3B) a low concentration of IL-15 (2 ng/ml) for 16 h, then co-cultured with ^51Cr labeled Molm-13, MV4-11 or EOL-1 leukemia cell lines for 4 h, followed by quantification of specific tumor cell lysis. Each experiment was repeated with 6 different normal donors. (FIG. 3C) qRT-PCR was performed to quantify the granzyme B (GZMB) mRNA levels (n=8 donors) in siRNA- and Scr siRNA-transduced primary human NK cells incubated without or with IL-15 (10 ng/ml) for 16 h. (FIG. 3D) The concentration of the granzyme B protein in the supernatants of Cbl-b siRNA- and Scr siRNA-transduced primary human NK cells incubated without (688.1 pg/ml vs 525.4 pg/ml; P=0.0232) or with IL-15 (10 ng/ml) for 24 h (8789 pg/ml vs 3397 pg/ml; P=0.0232) was measured by ELISA (n=8 donors). (FIG. 3E) The level of granzyme B protein in Cbl-b siRNA- and Scr siRNA-transduced primary human NK cells incubated without or with IL-15 (10 ng/ml) for 24 h was measured by immunoblot analysis. The data are representative of three experiments. Scr-scrambled; *P<0.05, **P<0.01, ***P<0.001, ****P<0.0001 by One-way or Two-way ANOVA; ns, not significant. Data presented as mean±SEM.
(§1) ELISA. Primary NK cells were plated in an equivalent number of 100,000 cells/well in a 96-well plate in RPMI and supplemented with 10% FBS. Cells were treated with recombinant human IL-15 (10 ng/ml) for 24 h, and cell-free culture supernatant was collected and frozen at −80° C. for later use. IFN-γ concentration was measured by ELISA using anti-IFN-γ antibody from Thermo Fisher Scientific. Granzyme B concentration was measured by ELISA kit purchased from R&D.
Both groups were next incubated without or with IL-15 and co-cultured with ^51Cr labeled MV4-11, Molm-13, or EOL-1 leukemia cell lines, followed by assessment of specific lysis measured after 4 h of co-culture.
On the technique in general: An ELISA detects its analyte on a solid surface through an enzyme-linked reagent.

The subject of data set [1] is IFN-γ. Nature of the data set: Intracellular IFN-γ flow cytometry of siRNA-transduced NK cells. Particulars: IL-15 (10 ng/ml) 24 h, n=5 donors. The data set is classed as cell-based, human. On the procedure:
(§2) FIGS. 4A-4D depict the results of a study showing that downregulation of Cbl-b increases IFN-γ secretion in IL-15-activated primary human NK cells. (FIG. 4A) RNAseq was conducted using primary human NK cells transduced with either Cbl-b siRNA or Scr siRNA without or with incubation in IL-15 (10 ng/ml) for 16 h (4 donors for each group). […] (FIG. 4B) qRT-PCR was performed to quantify the mRNA levels of IFN-γ (n=6 donors) after IL-15 (10 ng/ml) 6 h stimulation. (FIG. 4C) The percentage of intracellular IFN-γ+ cells in un-transduced NK cells or those transduced with Cbl-b siRNA or Scr siRNA, each activated with IL-15 (10 ng/ml) for 24 h (11.5% vs 4.338%; P=0.0008; n=5 donors). (FIG. 4D) Supernatants were collected after IL-15 (10 ng/ml) for 24 h and IFN-γ concentrations measured by ELISA (18115 pg/ml vs 882.5 pg/ml; P=0.0099; n=7 donors). Scr-scrambled; *P<0.05, **P<0.01, ***P<0.001 by Student's two-tailed paired t-test or One-way ANOVA; ns, not significant. Data presented as mean±SEM.
FIGS. 9B-9D show intracellular flow cytometric analysis of CD56+ primary human NK cells transduced with Scr siRNA or transduced with Cbl-b siRNA, incubated with IL-18 (10 ng/ml), IL-12 (10 ng/ml) or IL-18 (10 ng/ml) plus IL-12 (10 ng/ml) for 24 h. Scr, scrambled; *P<0.05, ns, not significant. Data are presented as mean±SEM.
Flow cytometry. To determine protein cell surface expression via flow cytometry, cells were stained with monoclonal antibodies at room temperature for 20 minutes and washed with FACS buffer prior to analysis using a Fortessa X-20 flow cytometer (BD Biosciences). For IFN-γ intracellular flow cytometric analysis, […] GolgiPlug (BD Biosciences) was added for 4 h before cell harvest; cells were then permeabilized and fixed using a Cytofix/Cytoperm Fixation/Permeabilization Solution Kit (BD Biosciences), followed by analysis with a Fortessa X-20 flow cytometer. Intracellular flow cytometric analysis of Mertk was performed similarly except that GolgiPlug was not added. Data was analyzed by using Flowjo V10 software (Tree Star, Ashland, OR, USA).
(§3) To further explore how Cbl-b regulates the functions of primary human NK cells, we performed RNA-seq analyses using enriched primary NK cells from healthy donors transduced with Cbl-b siRNA or Scr siRNA without or with IL-15 treatment for 16 h (n=4 in each group). […] The intracellular results were supported by assessment IFN-γ secretion into the supernatant, in that IL-15-activated primary human NK cells transduced with Cbl-b siRNA expressed 10-fold higher levels of IFN-γ compared to NK cells transduced with Scr siRNA (FIG. 4D).

The subject of data set [2] is IFN-γ. Kind of data set: IFN-γ in supernatants by ELISA. The class given is cell-based, human. The following applies: IL-15 (10 ng/ml) 24 h, n=7 donors. As to the method:
as §2, §1, §3

Data set [3] concerns Cbl-b. Nature of the data set: Cbl-b protein by immunoblot after stimulation of primary human NK cells with cytokines or activating antibody. The class given is cell-based. Particulars: primary human NK cells, 24 h cytokine stimulation, compared to resting NK cells without cytokines. On the procedure:
(FIG. 1B) Enriched primary human NK cells were co-cultured with the K562 myeloid leukemia cell line (E/T ratio=10:1) for 24 h followed by immunoblot analysis. Summary data are from three independent experiments. (FIG. 1C) Primary human NK cells were treated with different concentrations of IL-15 for 24 h followed by immunoblot analysis (n=5 donors). (FIG. 1D) Equal numbers of purified CD56^+ human NK cells, CD56^bright NK cells and CD56^dim NK cells were sorted from peripheral blood mononuclear cells isolated by Ficoll, cultured and stimulated with IL-15 (20 ng/ml for 24 h) followed by immunoblot analysis. The data are representative of three independent experiments. Med, medium only; *P<0.05, **P<0.01 by two-tailed unpaired t-test or One-way ANOVA; ns, not significant. Data are presented as mean±SEM.
FIG. 6A Enriched primary human NK cells were cocultured with Molm-13 or MV4-11 leukemia cell lines (E/T ratio=10:1) for 24 h prior to assessment of Cbl-b by immunoblot analysis. […] FIG. 6B Enriched primary human NK cells were cultured overnight with an anti-NKG2D activating antibody (clone 1D11) (10 μg/ml) or mouse IgG (10 μg/ml) as control prior to assessment of Cbl-b by immunoblot analysis. […] Data are shown summarizes four independent experiments. […] Data are shown summarizes five independent experiments. FIG. 6E The expression of Cbl-b was assessed by qRT-PCR after primary human NK cells were incubated with K562 cells (E/T ratio=10:1) for 24 h. Data are shown summarizes five independent experiments. *P<0.05, **P<0.01, compared to the shortest time point. Data are presented as mean±SEM.
(§4) Immunoblotting. Cells were harvested and suspended in RIPA lysis buffer (Thermo Fisher Scientific) on ice for 20 minutes. Equal amount of protein was resolved by 5-15% Criterion TGX gel (Bio-Rad) and then transferred onto a Nitrocellulose (NC) or PVDF membrane (Thermo Fisher Scientific). The membrane was incubated with a primary antibody at 4° C. overnight and an IRDye secondary antibody (Li-COR Biosciences) for 1 hour at room temperature. The immunoblots were visualized with Odyssey CLx Imager (Li-COR Biosciences). Densitometric analysis was performed to quantify intensity of gel bands with Image J (National Institutes of Health).
We assessed the expression of Cbl-b protein in primary human NK cells enriched from the blood of healthy donors in response to 24-hour stimulation by different cytokines. […] Since certain tumor cells can trigger NK cell activation, we co-cultured NK cells for 24 h with different tumor cell lines in order to assess this effect on the expression of Cbl-b.

Data set [4] has as its system Cbl-b. Nature of the data set: Cbl-b protein by immunoblot after inhibitor pretreatment and K562 co-culture of primary NK cells. The data set is classed as cell-based, human. The following applies: 10 uM, 90 min pretreatment, 24 h co-culture with K562 (E/T=10:1), vs vehicle control. As to the method:
FIG. 7A Primary NK cells were pretreated with AZD1480 (10 uM), CP-690550 (10 uM) or Afuresertib (10 uM) for 90 min prior to a 24 h cocultured with K562 cells (E/T=10:1). The immunoblot data are representative of 3 donors in a similar fashion. Densitometric quantification assessing the ratio of Cbl-b protein levels to β-actin protein levels for 3 donors is summarized in FIG. 7B. *P<0.05, **P<0.01; ns, not significant. Data are presented as mean±SEM.
as §4
(§5) Since IL-15 utilizes select JAK-STAT proteins to initiate cellular activation, we pretreated primary NK cells with the JAK3 inhibitor CP-690550 (22) or the JAK1/2 inhibitor AZD1480 (23) in increasing concentrations prior to IL-15 stimulation then Cbl-b expression level was evaluated. […] As K562 cells were also able to induce expression of Cbl-b in primary human NK cells (FIG. 1B), we repeated the inhibitor experiments under the K562 cell stimulation.
On the technique in general: In western blotting, separated proteins are transferred to a membrane and probed.

Data set [5] has as its system Cbl-b. Nature of the data set: Cbl-b protein by immunoblot after JAK or AKT inhibitor pretreatment and IL-15/IL-2 activation of primary NK cells. The class given is cell-based, human. The following applies: 90 min pretreatment at various concentrations, then IL-15 (10 ng/ml) 24 h, vs vehicle control. On the procedure:
FIGS. 2A-2E depict the results of a study showing that JAK-STAT and AKT pathways mediate upregulation of Cbl-b in NK cells. (FIG. 2A) Primary human NK cells were pretreated with the JAK3 inhibitor CP-690550 and the JAK1/2 inhibitor AZD1480 at various concentrations for 90 min prior to a 24 h activation by IL15 (10 ng/ml). NK cells were then harvested for quantification of Cbl-b protein expression by immunoblot analysis. Data are representative of 6 donors performed in a similar fashion. Densitometric quantification assessing the ratio of the Cbl-b protein to β-actin protein levels for 6 donors is summarized in (FIG. 2B) and (FIG. 2C). […] Data are representative of 5 donors performed in a similar fashion. Densitometric quantification assessing the ratio of the Cbl-b protein levels to β-actin protein levels for 5 donors is summarized in (FIG. 2E). *P<0.05, **P<0.01, ***P<0.001 by One-way ANOVA or Student's two-tailed paired t-test. Data are presented as mean±SEM.
as §4, §5

Consider “Scr siRNA: scrambled Accell siRNA control, SEQ ID NO:2, UGGUUUACAUGUUGUGUGA (Accell modifications, chemistry not fully specified) [reference compound]”, for which the “concentration of granzyme B protein in supernatants” value worked out at 3397 pg/mL with granzyme B (with IL-15 (10 ng/ml) 24 h, n=8 donors) and 525.4 pg/mL with granzyme B (without IL-15, n=8 donors). Moreover, the “percentage of intracellular IFN-γ+ cells” value with IFN-γ [1] is reported as 4.338%. Moreover, in the data set on IFN-γ [2], the “IFN-γ concentration in supernatants” value is 882.5 pg/mL.

For the molecule “IL-21: Recombinant human IL-21 purchased from Miltenyi Biotec”, the “expression of Cbl-b protein (ratio to β-actin)” value (“expression … (ratio to β-actin)” for short) in the data set on Cbl-b [3] is on record as “no significant change”.

`C[C@@H]1CCN(C(=O)CC#N)C[C@@H]1N(C)c1ncnc2[nH]ccc12` [CP-690550]: in the data set with Cbl-b [4], the “Cbl-b expression after inhibitor pretreatment under K562 stimulation” value is “only the AKT1/2/3 inhibitor Afuresertib rather than either of the two JAK inhibitors”. Moreover, in the data set with Cbl-b [5], the “expression of Cbl-b protein after inhibitor pretreatment” value was “significant decrease”.

With “IL-18: Recombinant human IL-18 purchased from Miltenyi Biotec”, in the data set with Cbl-b [3], the “expression … (ratio to β-actin)” value is recorded as “no significant change”.

B1: IL-7: Recombinant human IL-7 purchased from Miltenyi Biotec (protein, UniProt P13232 26-177, looked up)
Interleukin-7: DCDIEGKDGKQYESVLMVSIDQLLDSMKEIGSNCLNNEFNFFKRHICDANKEGMFLFRAARKLRQFLKMNSTGDFDLHLLKVSEGTTILLNCTGQVKGRKPAALGEAQPTKSLEENKSLKEQKKLNDLCFLKRLLQEIKTCWNKILMGTKEH
On to B1, for which the “expression … (ratio to β-actin)” value with Cbl-b [3] is “no significant change”.

B2: IL-12: Recombinant human IL-12 purchased from Miltenyi Biotec (protein, UniProt P29459 23-219; P29460 23-328, looked up)
Interleukin-12 subunit alpha: RNLPVATPDPGMFPCLHHSQNLLRAVSNMLQKARQTLEFYPCTSEEIDHEDITKDKTSTVEACLPLELTKNESCLNSRETSFITNGSCLASRKTSFMMALCLSSIYEDLKMYQVEFKTMNAKLLMDPKRQIFLDQNMLAVIDELMQALNFNSETVPQKSSLEEPDFYKTKIKLCILLHAFRIRAVTIDRVMSYLNAS
Interleukin-12 subunit beta: IWELKKDVYVVELDWYPDAPGEMVVLTCDTPEEDGITWTLDQSSEVLGSGKTLTIQVKEFGDAGQYTCHKGGEVLSHSLLLLHKKEDGIWSTDILKDQKEPKNKTFLRCEAKNYSGRFTCWWLTTISTDLTFSVKSSRGSSDPQGVTCGAATLSAERVRGDNKEYEYSVECQEDSACPAAEESLPIEVMVDAVHKLKYENYTSSFFIRDIIKPDPPKNLQLKPLKNSRQVEVSWEYPDTWSTPHSYFSLTFCVQVQGKSKREKKDRVFTDKTSATVICRKNASISVRAQDRYYSSSWSEWASVPCS
As to B2, the “expression … (ratio to β-actin)” value in the data set on Cbl-b [3] is “no significant change”.
